Results: ChEMBL document CHEMBL1146699, “P3 cap modified Phe*-Ala series BACE inhibitors” (Bioorg Med Chem Lett, 2004)

Legend:
[1] = test system: HEK293; test: Inhibitory activity against beta-amyloid (Abeta) peptide in human HEK293/APP751swe cells; assay type: functional, cell-based
[2] = molecular target: Beta-secretase 1 (Homo sapiens, UniProt P56817); test: In vitro inhibitory activity against Beta-secretase 1 in human HEK293 cells; assay type: cell-based
[3] = test system: HEK293; test: Inhibitory activity against beta-amyloid (Abeta) peptide in human HEK293/APP751swe cells; Range 0.97-1.35; assay type: functional, cell-based
[4] = test system: HEK293; test: Inhibitory activity against beta-amyloid (Abeta) peptide in human HEK293/APP751swe cells; Range 4.8-7.5; assay type: functional, cell-based
[5] = molecular target: T1, Beta-secretase 2 (Homo sapiens) (UniProt Q9Y5Z0); test: Selectivity tested against Beta-secretase 2 (BACE) in human
T1 sequence (whole entry): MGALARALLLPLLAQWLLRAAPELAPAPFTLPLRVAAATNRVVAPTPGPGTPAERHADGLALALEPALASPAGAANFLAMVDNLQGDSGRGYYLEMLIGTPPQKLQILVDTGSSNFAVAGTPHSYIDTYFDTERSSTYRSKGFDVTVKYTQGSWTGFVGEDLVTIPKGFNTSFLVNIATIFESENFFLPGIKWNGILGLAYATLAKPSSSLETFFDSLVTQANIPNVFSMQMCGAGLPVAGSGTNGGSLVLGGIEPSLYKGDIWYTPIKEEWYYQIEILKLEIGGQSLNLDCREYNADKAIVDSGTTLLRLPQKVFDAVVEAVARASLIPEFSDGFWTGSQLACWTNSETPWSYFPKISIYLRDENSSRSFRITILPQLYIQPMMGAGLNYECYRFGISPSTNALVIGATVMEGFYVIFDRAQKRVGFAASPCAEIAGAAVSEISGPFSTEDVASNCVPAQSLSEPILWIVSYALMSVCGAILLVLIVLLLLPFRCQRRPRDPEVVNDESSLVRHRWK

Sequence of Beta-secretase 1 (P56817 whole entry): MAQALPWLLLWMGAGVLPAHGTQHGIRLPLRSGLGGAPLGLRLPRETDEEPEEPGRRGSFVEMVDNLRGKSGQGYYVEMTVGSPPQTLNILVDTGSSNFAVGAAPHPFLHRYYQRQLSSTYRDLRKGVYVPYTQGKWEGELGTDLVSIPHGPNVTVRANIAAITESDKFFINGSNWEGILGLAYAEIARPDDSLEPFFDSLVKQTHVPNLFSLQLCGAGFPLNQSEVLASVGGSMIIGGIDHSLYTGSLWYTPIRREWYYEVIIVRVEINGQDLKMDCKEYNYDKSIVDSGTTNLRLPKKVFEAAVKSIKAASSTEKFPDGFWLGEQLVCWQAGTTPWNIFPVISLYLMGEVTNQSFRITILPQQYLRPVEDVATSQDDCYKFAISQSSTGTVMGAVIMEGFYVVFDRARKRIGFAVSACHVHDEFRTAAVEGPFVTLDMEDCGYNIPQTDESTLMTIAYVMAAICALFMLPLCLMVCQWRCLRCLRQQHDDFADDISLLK

Structure (SMILES) | IC50 [2] [µM] | Selectivity [5] | IC50 [1] [µM] | IC50 [3] [µM] | IC50 [4] [µM]
CC(C)CC(=O)N[C@@H](C)C(=O)N[C@@H](Cc1ccccc1)[C@@H](O)CC(C)C(=O)N[C@H](C(=O)NCc1ccncc1)C(C)C (single isomer, unassigned) | 1.74 | – | > 100 | – | –
CC(C[C@H](O)[C@H](Cc1ccccc1)NC(=O)[C@H](C)NC(=O)[C@@H](O)C(C)C)C(=O)N[C@H](C(=O)NCc1ccccc1)C(C)C (single isomer, unassigned) | 0.037 | – | 6.3 | – | –
CC[C@H](C)[C@H](O)C(=O)N[C@@H](C)C(=O)N[C@@H](Cc1ccccc1)[C@@H](O)CC(C)C(=O)N[C@H](C(=O)NCc1ccncc1)C(C)C (single isomer, unassigned) | 0.035 | – | 1.23 | – | –
CC(C[C@H](O)[C@H](Cc1ccccc1)NC(=O)[C@H](C)NC(=O)[C@@H](F)C(C)C)C(=O)N[C@H](C(=O)NCc1ccncc1)C(C)C (single isomer, unassigned) | 1.13 | – | 49 | – | –
CCC[C@H](NC(=O)[C@@H](O)C(C)C)C(=O)N[C@@H](Cc1ccccc1)[C@@H](O)CC(C)C(=O)N[C@H](C(=O)NCc1ccncc1)C(C)C (single isomer, unassigned) | 0.55 | – | 30.4 | – | –
CC(C)[C@H](O)C(=O)N[C@@H](C)C(=O)N[C@@H](Cc1ccccc1)[C@@H](O)C[C@@H](C)C(=O)N[C@H](C(=O)NCc1ccncc1)C(C)C | 0.13 | – | – | – | < 7.5
CC(C)C[C@H](O)C(=O)N[C@@H](C)C(=O)N[C@@H](Cc1ccccc1)[C@@H](O)CC(C)C(=O)N[C@H](C(=O)NCc1ccncc1)C(C)C (single isomer, unassigned) | 0.23 | – | 16.9 | – | –
CC(C[C@H](O)[C@H](Cc1ccccc1)NC(=O)[C@@H](NC(=O)[C@@H](O)C(C)C)C(C)C)C(=O)N[C@H](C(=O)NCc1ccncc1)C(C)C (single isomer, unassigned) | 4.64 | – | – | – | –

Further molecules by falling IC50 [2], results first:

IC50 [2] [µM] | Selectivity [5] | Structure (SMILES) | IC50 [1] [µM] | IC50 [3] [µM] | IC50 [4] [µM]
4.49 | – | CC(C[C@H](O)[C@H](Cc1ccccc1)NC(=O)[C@H](COC(C)(C)C)NC(=O)[C@@H](O)C(C)C)C(=O)N[C@H](C(=O)NCc1ccncc1)C(C)C (single isomer, unassigned) | – | – | –
3.18 | – | CC[C@H](C)[C@H](O)C(=O)N[C@@H](CC(F)F)C(=O)N[C@@H](Cc1ccccc1)[C@@H](O)C[C@@H](CC(F)F)C(=O)N[C@H](C(=O)NCc1ccncc1)C(C)C | > 37.5 | – | –
0.35 | – | CSCC[C@H](NC(=O)[C@@H](O)C(C)C)C(=O)N[C@@H](Cc1ccccc1)[C@@H](O)CC(C)C(=O)N[C@H](C(=O)NCc1ccncc1)C(C)C (single isomer, unassigned) | 25.2 | – | –
0.35 | – | CC(C[C@H](O)[C@H](Cc1ccccc1)NC(=O)[C@H](CO)NC(=O)[C@@H](O)C(C)C)C(=O)N[C@H](C(=O)NCc1ccncc1)C(C)C (single isomer, unassigned) | 20 | – | –
0.22 | – | CC(C[C@H](O)[C@H](Cc1ccccc1)NC(=O)[C@H](C)NC(=O)[C@@H](O)CC(F)(F)F)C(=O)N[C@H](C(=O)NCc1ccncc1)C(C)C (single isomer, unassigned) | 3.9 | – | –
0.19 | 0.52 | CC(C[C@H](O)[C@H](Cc1ccccc1)NC(=O)[C@H](C)NC(=O)[C@@H](N)C(C)C)C(=O)NC(C(=O)NCc1ccncc1)C(C)C (single isomer, unassigned) | 38.4 | – | –
0.176 | – | CC[C@H](C)[C@H](O)C(=O)N[C@@H](CC(C)C)C(=O)N[C@@H](Cc1ccccc1)[C@@H](O)CC(CC(C)C)C(=O)N[C@H](C(=O)NCc1ccncc1)C(C)C (single isomer, unassigned) | 3.7 | – | –
0.1 | – | CCC(C[C@H](O)[C@H](Cc1ccccc1)NC(=O)[C@H](C)NC(=O)[C@@H](O)C(C)C)C(=O)N[C@H](C(=O)N[C@H](C)c1ccccc1)C(C)C (single isomer, unassigned) | 13.6 | – | –
0.067 | – | CC[C@H](C)[C@H](O)C(=O)N[C@@H](CCCF)C(=O)N[C@@H](Cc1ccccc1)[C@@H](O)CC(CCCF)C(=O)N[C@H](C(=O)NCc1ccncc1)C(C)C (single isomer, unassigned) | – | < 1.35 | –
0.06 | – | CCC(C[C@H](O)[C@H](Cc1ccccc1)NC(=O)[C@H](C)NC(=O)[C@@H](O)C(C)C)C(=O)N[C@H](C(=O)N[C@@H](C)c1ccccc1)C(C)C (single isomer, unassigned) | 19.8 | – | –
0.045 | – | CC[C@H](C)[C@H](O)C(=O)N[C@@H](CCC(F)F)C(=O)N[C@@H](Cc1ccccc1)[C@@H](O)CC(CCC(F)F)C(=O)N[C@H](C(=O)NCc1ccncc1)C(C)C (single isomer, unassigned) | 1.08 | – | –
